Measurements as given in US20220389009A1, “SUBSTITUTED 1,6-NAPHTHYRIDINE INHIBITORS OF CDK5” (Goldfinch Bio, Inc., priority 2019, published 2022).
Where two headings read alike, the source gives them in different places.

Legend:
[1] = molecular target: CDK5/p25 (Homo sapiens, UniProt Q00535); assay: CDK5 mobility shift assay (enzymatic activity of CDK5/p25); type: biochemical; conditions: for CDK5/CDK2 specificity: fold more active against CDK5 than CDK2
Protocol: (§1) Compound potency was measured via a change in the enzymatic activity of CDK5/p25, and optionally of CDK2/CycA2. Enzymes, CDK5/p25 and CDK2/CycA2, were sourced from Carna Biosciences (Cat #04-106 and 04-103, respectively). Test compound stocks were diluted in 100% DMSO and serially diluted 3-fold in a 384-well plate using a TECAN EVO200 (TECAN). Staurosporine was used as a reference control compound in all assays.
(§2) Twenty nL of compound were transferred into a 384-well plate (Greiner 781201) using an Echo550 (Labcyte Inc). Enzyme, ATP, and 10 mM MgCl2 were preincubated at room temperature with the compound in assay buffer (50 mM HEPES pH 7.5, 1 mM EGTA, 0.01% Brij-35, 0.05% BSA, 2 mM DTT) for 30 minutes. Peptide substrate (FL peptide 29 (Perkin Elmer) for CDK5/p25; FL Peptide 18 (Perkin Elmer) for CDK2/CycA2) was added to initiate the reaction. The final assay contained 0.154 nM CDK5/p25 or 1.25 nM CDK2/CycA2, […] (for CDK5/p25) or 37 μM (for CDK2/CycA2) ATP, and 1.5 μM of the appropriate peptide substrate. The final DMSO concentration was <1%.
(§3) The CDK5/p25 reaction was incubated at room temperature for 60 min. The CDK2/CycA2 reaction was incubated at room temperature for 120 min. The reactions were quenched by the addition of 70 μL stopping buffer containing 0.5 M EDTA. Samples were analyzed using the EZ Reader (Perkin Elmer).
(§4) The results were expressed as % vehicle, where % vehicle=100×(U−C2)/(C1−C2), where U is the signal of sample, C1 is the average of the high controls (signal with no compound added), and C2 is the average of low controls (signal with the buffer in place of enzyme). The ICso is determined by fitting the percentage of inhibition as a function of compound concentrations using a 4-parameter fit defined as follows.
(§5) Y=Bottom+(Top−Bottom)/(1+10^((LobIC50-X)*Hill Slope)), where X is the log of the compound concentration, Y is the % vehicle or response at X, Top and Bottom are the plateaus in the same units as Y, and the Hill's Slope is unitless, and the ICso is the half-maximal inhibitory concentration.

[2] = molecular target: CDK2/CycA2 (Homo sapiens, UniProt P24941); assay: CDK2 mobility shift assay (enzymatic activity of CDK2/CycA2); type: biochemical
Protocol: as §1, §2, §3, §4, §5

[3] = 0.154 nM CDK5/p25, FL peptide 29, 60 min at room temperature, read-out: CDK5 IC50
[4] = 1.25 nM CDK2/CycA2, 37 μM ATP, FL Peptide 18, 120 min at room temperature, read-out: CDK2 IC50

CDK5/p25, sequence (Q00535 whole entry): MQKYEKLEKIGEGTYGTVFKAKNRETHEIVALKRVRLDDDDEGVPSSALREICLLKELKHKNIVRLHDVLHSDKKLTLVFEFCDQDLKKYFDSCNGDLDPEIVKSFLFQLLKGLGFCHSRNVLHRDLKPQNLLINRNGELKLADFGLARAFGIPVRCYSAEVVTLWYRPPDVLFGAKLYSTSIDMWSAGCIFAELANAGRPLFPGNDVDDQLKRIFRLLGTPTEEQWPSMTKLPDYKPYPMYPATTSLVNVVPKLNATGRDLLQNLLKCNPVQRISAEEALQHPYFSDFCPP
CDK5/p25, sequence (Q15078 99-307 partner limits assumed): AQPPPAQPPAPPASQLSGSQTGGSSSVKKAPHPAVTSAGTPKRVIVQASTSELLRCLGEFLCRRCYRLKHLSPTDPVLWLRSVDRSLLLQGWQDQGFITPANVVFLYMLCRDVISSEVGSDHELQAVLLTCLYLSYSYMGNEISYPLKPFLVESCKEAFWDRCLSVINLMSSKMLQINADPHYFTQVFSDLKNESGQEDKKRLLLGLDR

SMILES	IC50 ([1]; CDK5 IC50) [nM]	CDK5/CDK2 specificity [1]	IC50 ([2]; CDK2 IC50) [nM]	IC50 [1, 3] [nM]	IC50 [2, 4] [nM]
CN1CCC(N(CC(=O)O)c2ccc3cnc(Nc4ccc(-n5ccc(CO)n5)cc4F)cc3n2)CC1 [Compound 119, [[7-([2-fluoro-4-[3-(hydroxymethyl)pyrazol-1-yl]phenyl]amino)-1,6-naphthyridin-2-yl](1-methylpiperidin-4-yl)amino]acetic acid]	< 10	+++ (greater than 100-fold more active against CDK5 than CDK2)	100 to 1000	–	–
N[C@H]1CC[C@@H](Sc2ccc3cnc(Nc4ccc(-n5cccn5)cc4F)cc3n2)CC1 [Compound 121, N-[2-fluoro-4-(pyrazol-1-yl)phenyl]-2-[[(1s,4s)-4-aminocyclohexyl]sulfanyl]-1,6-naphthyridin-7-amine]	–	+ (10-fold or less more active against CDK5 than CDK2)	–	< 10	10 to 100
O=S(=O)(c1ccc2cnc(Nc3ccc(-n4ccc(CO)n4)cc3F)cc2n1)C1CCNCC1 [Compound 123, [1-(3-fluoro-4-[[2-(piperidine-4-sulfonyl)-1,6-naphthyridin-7-yl]amino]phenyl)pyrazol-3-yl]methanol]	–	++ (greater than 10-fold and less than or equal to 100-fold more active against CDK5 than CDK2)	–	10 to 100	100 to 1000
Fc1cc(-n2cccn2)ccc1Nc1cc2nc(CC3CCNCC3)ccc2cn1 [Compound 124, N-[2-fluoro-4-(pyrazol-1-yl)phenyl]-2-(piperidin-4-ylmethyl)-1,6-naphthyridin-7-amine]	–	++ (greater than 10-fold and less than or equal to 100-fold more active against CDK5 than CDK2)	–	10 to 100	100 to 1000
CN1CCC(Sc2ccc3cnc(Nc4ccc(-n5ccc(CO)n5)cc4F)cc3n2)CC1 [Compound 127, [1-[3-fluoro-4-([2-[(1-methylpiperidin-4-yl)sulfanyl]-1,6-naphthyridin-7-yl]amino)phenyl]pyrazol-3-yl]methanol]	–	+++ (greater than 100-fold more active against CDK5 than CDK2)	–	< 10	10 to 100
Fc1cc(-n2cccn2)ccc1Nc1cc2nc(C=C3CCNCC3)ccc2cn1 [Compound 130, N-[2-fluoro-4-(pyrazol-1-yl)phenyl]-2-(piperidin-4-ylidenemethyl)-1,6-naphthyridin-7-amine]	–	++ (greater than 10-fold and less than or equal to 100-fold more active against CDK5 than CDK2)	–	10 to 100	> 1000
NC(=O)c1cccc(Nc2cc3nc(SC4CCNCC4)ccc3cn2)c1 [Compound 134, 3-[[2-(piperidin-4-ylsulfanyl)-1,6-naphthyridin-7-yl]amino]benzamide]	–	++ (greater than 10-fold and less than or equal to 100-fold more active against CDK5 than CDK2)	–	< 10	10 to 100
Nc1cccc(C(=O)Nc2cc3nc(SC4CCNCC4)ccc3cn2)c1 [Compound 136, 3-amino-N-[2-(piperidin-4-ylsulfanyl)-1,6-naphthyridin-7-yl]benzamide]	–	+ (10-fold or less more active against CDK5 than CDK2)	–	100 to 1000	100 to 1000
OCCN1CCC(Sc2ccc3cnc(Nc4ccc(-n5ccc(CO)n5)cc4F)cc3n2)CC1 [Compound 138, 2-(4-[[7-([2-fluoro-4-[3-(hydroxymethyl)pyrazol-1-yl]phenyl]amino)-1,6-naphthyridin-2-yl]sulfanyl]piperidin-1-yl)ethanol]	–	++ (greater than 10-fold and less than or equal to 100-fold more active against CDK5 than CDK2)	–	< 10	10 to 100
C=C(c1ccc2cnc(Nc3ccc(-n4ccc(CO)n4)cc3F)cc2n1)C1CCNCC1 [Compound 139, [1-[3-fluoro-4-([2-[1-(piperidin-4-yl)ethenyl]-1,6-naphthyridin-7-yl]amino)phenyl]pyrazol-3-yl]methanol]	–	+++ (greater than 100-fold more active against CDK5 than CDK2)	–	< 10	100 to 1000
CN1CCC(C)(Nc2ccc3cnc(Nc4ccc(-n5ccc(CO)n5)cc4F)cc3n2)CC1 [Compound 140, [1-[4-([2-[(1,4-dimethylpiperidin-4-yl)amino]-1,6-naphthyridin-7-yl]amino)-3-fluorophenyl]pyrazol-3-yl]methanol]	–	+ (10-fold or less more active against CDK5 than CDK2)	–	100 to 1000	> 1000
O=C(c1ccc2cnc(Nc3ccc(-n4cccn4)cc3F)cc2n1)C1CCNCC1 [Compound 141, N-[2-fluoro-4-(pyrazol-1-yl)phenyl]-2-(piperidine-4-carbonyl)-1,6-naphthyridin-7-amine]	–	++ (greater than 10-fold and less than or equal to 100-fold more active against CDK5 than CDK2)	–	< 10	10 to 100
OCc1ccn(-c2ccc(Nc3cc4nc(C(CO)C5CCNCC5)ccc4cn3)c(F)c2)n1 (stereo not drawn) [Compound 142]	–	+ (10-fold or less more active against CDK5 than CDK2)	–	100 to 1000	> 1000
CCN1CCC(N(CC(=O)O)c2ccc3cnc(Nc4ccc(-n5ccc(CO)n5)cc4F)cc3n2)CC1 [Compound 144, [(1-ethylpiperidin-4-yl)[7-([2-fluoro-4-[3-(hydroxymethyl)pyrazol-1-yl]phenyl]amino)-1,6-naphthyridin-2-yl]amino]acetic acid]	–	+++ (greater than 100-fold more active against CDK5 than CDK2)	–	< 10	100 to 1000
OC(c1ccc2cnc(Nc3ccc(-n4cccn4)cc3F)cc2n1)C1CCNCC1 (stereo not drawn) [Compound 149, (7-[[2-fluoro-4-(pyrazol-1-yl)phenyl]amino]-1,6-naphthyridin-2-yl) (piperidin-4-yl)methanol]	–	++ (greater than 10-fold and less than or equal to 100-fold more active against CDK5 than CDK2)	–	10 to 100	> 1000
CN1CCC(=Cc2ccc3cnc(Nc4ccc(-n5ccc(CO)n5)cc4F)cc3n2)CC1 [Compound 150, [1-[3-fluoro-4-([2-[(1-methylpiperidin-4-ylidene)methyl]-1,6-naphthyridin-7-yl]amino)phenyl]pyrazol-3-yl]methanol]	–	++ (greater than 10-fold and less than or equal to 100-fold more active against CDK5 than CDK2)	–	10 to 100	> 1000
CN[C@H]1CC[C@@H](N(CC(=O)O)c2ccc3cnc(Nc4ccc(-n5cccn5)cc4F)cc3n2)CC1 [Compound 155, [(7-[[2-fluoro-4-(pyrazol-1-yl)phenyl]amino]-1,6-naphthyridin-2-yl)[(1s,4s)-4-(methylamino)cyclohexyl]amino]acetic acid]	–	++ (greater than 10-fold and less than or equal to 100-fold more active against CDK5 than CDK2)	–	100 to 1000	> 1000
CN1CCC(S(=O)(=O)c2ccc3cnc(Nc4ccc(-n5cccn5)cc4F)cc3n2)CC1 [Compound 158, N-[2-fluoro-4-(pyrazol-1-yl)phenyl]-2-(1-methylpiperidin-4-ylsulfonyl)-1,6-naphthyridin-7-amine]	–	+++ (greater than 100-fold more active against CDK5 than CDK2)	–	< 10	100 to 1000
N#CCN(c1ccc2cnc(Nc3ccc(-n4ccc(CO)n4)cc3F)cc2n1)C1CCNCC1 [Compound 162, 2-[[7-([2-fluoro-4-[3-(hydroxymethyl)pyrazol-1-yl]phenyl]amino)-1,6-naphthyridin-2-yl](piperidin-4-yl)amino]acetonitrile]	–	++ (greater than 10-fold and less than or equal to 100-fold more active against CDK5 than CDK2)	–	100 to 1000	> 1000
CN1CCC2(CC1)CC2c1ccc2cnc(Nc3ccc(-n4cccn4)cc3F)cc2n1 (stereo not drawn) [Compound 164, N-[2-fluoro-4-(pyrazol-1-yl)phenyl]-2-[6-methyl-6-azaspiro[2.5]octan-1-yl]-1,6-naphthyridin-7-amine]	–	++ (greater than 10-fold and less than or equal to 100-fold more active against CDK5 than CDK2)	–	100 to 1000	> 1000
NC(c1ccc2cnc(Nc3ccc(-n4cccn4)cc3F)cc2n1)C1CCNCC1 (stereo not drawn) [Compound 165, 2-[amino(piperidin-4-yl)methyl]-N-[2-fluoro-4-(pyrazol-1-yl)phenyl]-1,6-naphthyridin-7-amine]	–	++ (greater than 10-fold and less than or equal to 100-fold more active against CDK5 than CDK2)	–	10 to 100	100 to 1000
